Assays:
Escherichia coli = experiment: Antimicrobial activity against Escherichia coli at 37 degC after 24 hrs by tube dilution method; format: functional; set-up: unit not given here
Candida albicans = experiment: Antifungal activity against Candida albicans at 37 degC after 48 hrs by tube dilution method; format: functional; set-up: unit not given here
Staphylococcus aureus = experiment: Antimicrobial activity against Staphylococcus aureus at 37 degC after 24 hrs by tube dilution method; format: functional; set-up: unit not given here
Aspergillus niger = experiment: Antifungal activity against Aspergillus niger at 25 degC after 7 days by tube dilution method; format: functional; set-up: unit not given here
[1] = Octanol-water partition coefficient, log P of the compound; format: physicochemical
Bacillus subtilis = experiment: Antimicrobial activity against Bacillus subtilis at 37 degC after 24 hrs by tube dilution method; format: functional; set-up: unit not given here

Structure (SMILES) | -logMIC (Escherichia coli) | -logMIC (Candida albicans) | -logMIC (Staphylococcus aureus) | -logMIC (Aspergillus niger) | logP [1] | -logMIC (Bacillus subtilis)
O=C(c1cccnc1)n1c(-c2ccccc2[N+](=O)[O-])nc2ccccc21 | 1.5 | 1.74 | 1.5 | 1.44 | 4.13 | 1.5
O=C(c1cccnc1)n1c(-c2ccc(O)cc2)nc2ccccc21 | 1.8 | 1.7 | 1.7 | 1.4 | 3.89 | 1.57
O=[N+]([O-])c1ccccc1-c1nc2ccccc2[nH]1 | 1.35 | 1.58 | 1.17 | 1.58 | 3.07 | 1.73
O=C(c1cccnc1)n1c(-c2ccc(Cl)cc2)nc2ccccc21 | 1.73 | 1.73 | 1.73 | 1.43 | 4.7 | 1.43
O=C(O)c1ccccc1-c1nc2ccccc2n1C(=O)c1cccnc1 | 1.44 | 1.74 | 1.44 | 1.44 | 4.13 | 1.44
O=C(c1cccnc1)n1c(-c2ccccc2Cl)nc2ccccc21 | 1.65 | 1.73 | 1.73 | 1.43 | 4.7 | 1.43
Clc1cccc(-c2nc3ccccc3[nH]2)c1 | 1.65 | 1.26 | 1.49 | 1.36 | 3.63 | 1.49
OC(Cn1cncn1)(Cn1cncn1)c1ccc(F)cc1F [FLUCONAZOLE] | 3.33 | 2.64 |  | 2.64 |  | 
Clc1ccc(-c2nc3ccccc3[nH]2)cc1 | 1.66 | 1.56 | 1.66 | 1.4 | 3.63 | 1.51
Clc1ccccc1-c1nc2ccccc2[nH]1 | 1.49 | 1.26 | 1.4 | 1.26 | 3.63 | 1.49
COc1ccccc1-c1nc2ccccc2n1C(=O)c1cccnc1 | 1.6 | 1.72 | 1.42 | 1.42 | 3.93 | 1.42
O=C(O)c1cn(C2CC2)c2cc(N3CCNCC3)c(F)cc2c1=O [CIPROFLOXACIN] |  |  | 3.33 |  |  | 3.33
O=[N+]([O-])c1cccc(-c2nc3ccccc3[nH]2)c1 | 1.41 | 1.58 | 1.47 | 1.58 | 3.07 | 1.72
O=C(c1cccnc1)n1c(-c2ccc([N+](=O)[O-])cc2)nc2ccccc21 | 1.44 | 1.74 | 1.44 | 1.44 | 4.13 | 1.44
O=[N+]([O-])c1ccc(-c2nc3ccccc3[nH]2)cc1 | 1.2 | 1.58 | 1.01 | 1.58 | 3.07 | 1.78
O=C(c1cccnc1)n1c(-c2cccc(Cl)c2)nc2ccccc21 | 1.8 | 1.73 | 1.79 | 1.43 | 4.7 | 1.5
c1ccc(-c2nc3ccccc3[nH]2)cc1 | 1.72 | 1.49 | 1.46 | 1.49 | 3.11 | 1.68
O=C(c1cccnc1)n1c(-c2cccc([N+](=O)[O-])c2)nc2ccccc21 | 1.44 | 1.74 | 1.44 | 1.44 | 4.13 | 1.44
Oc1ccc(-c2nc3ccccc3[nH]2)cc1 | 1.7 | 1.43 | 1.53 | 1.33 | 2.83 | 1.79
O=C(O)c1ccccc1-c1nc2ccccc2[nH]1 | 1.7 | 1.48 | 1.5 | 1.28 | 2.81 | 1.7
COc1ccccc1-c1nc2ccccc2[nH]1 | 1.65 | 1.25 | 1.5 | 1.35 | 2.86 | 1.71

— ChEMBL document CHEMBL1138554, “Synthesis and QSAR evaluation of 2-(substituted phenyl)-1H-benzimidazoles and [2-(substituted phenyl)-benzimidazol-1-yl]-pyridin-3-yl-methanones” (Eur J Med Chem, 2009)
